In PMC5698418 (Nature Communications, 2017):

Assays:
acetyl-H3K9 = assay: Acetyl-H3K9 immunofluorescence in neuronal nuclei (multiplexed in screen); format: cell-based, mouse; conditions: screen, 16.7 µM
In short: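 DIV13 mouse primary cortical neurons treated with library compounds and BDNF, then immunostained for Arc and acetyl-H3K9. Imaged at ×40 by automated microscopy; acetyl-H3K9 signal served as nuclear mask for quantifying nuclear Arc immunofluorescence.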

HDAC1 = biological target: T1, HDAC1 (Homo sapiens, UniProt Q13547); assay: Biochemical HDAC assay (BPS Bioscience), HDAC1; conditions: 25 µM
T1 construct: purchased BPS Bioscience (San Diego, CA), contract assay service
T1 sequence (Q13547 whole entry): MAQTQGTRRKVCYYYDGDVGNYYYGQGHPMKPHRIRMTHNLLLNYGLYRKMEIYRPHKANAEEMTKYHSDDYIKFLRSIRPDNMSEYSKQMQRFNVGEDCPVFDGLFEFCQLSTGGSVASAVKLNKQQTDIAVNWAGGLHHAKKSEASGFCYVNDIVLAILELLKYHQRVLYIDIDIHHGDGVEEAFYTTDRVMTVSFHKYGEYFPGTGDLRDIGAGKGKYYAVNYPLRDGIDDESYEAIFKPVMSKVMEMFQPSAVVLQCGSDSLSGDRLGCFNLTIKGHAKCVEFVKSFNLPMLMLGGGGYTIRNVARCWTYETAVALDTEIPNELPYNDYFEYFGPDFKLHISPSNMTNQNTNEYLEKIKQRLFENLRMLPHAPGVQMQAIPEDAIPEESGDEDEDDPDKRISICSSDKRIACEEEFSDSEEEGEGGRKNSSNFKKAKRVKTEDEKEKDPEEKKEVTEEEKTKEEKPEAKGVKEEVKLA

HDAC3 = biological target: T2, HDAC3 (Homo sapiens, UniProt O15379); assay: Biochemical HDAC assay (BPS Bioscience), HDAC3; conditions: 25 µM
T2 construct: purchased BPS Bioscience (San Diego, CA), contract assay service
T2 sequence (O15379 whole entry): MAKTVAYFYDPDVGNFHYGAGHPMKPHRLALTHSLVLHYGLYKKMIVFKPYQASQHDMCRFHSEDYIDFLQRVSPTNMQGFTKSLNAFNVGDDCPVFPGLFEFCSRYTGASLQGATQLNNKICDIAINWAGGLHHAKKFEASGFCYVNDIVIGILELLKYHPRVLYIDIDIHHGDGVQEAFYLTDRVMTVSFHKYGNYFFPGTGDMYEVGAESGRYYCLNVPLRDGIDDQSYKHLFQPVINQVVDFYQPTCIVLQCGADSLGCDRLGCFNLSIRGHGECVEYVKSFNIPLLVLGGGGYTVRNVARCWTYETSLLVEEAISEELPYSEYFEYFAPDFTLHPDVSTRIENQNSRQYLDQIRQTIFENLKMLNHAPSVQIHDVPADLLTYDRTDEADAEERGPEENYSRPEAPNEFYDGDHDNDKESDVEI
T2 sequence (Q9Y618 395-489 partner limits assumed): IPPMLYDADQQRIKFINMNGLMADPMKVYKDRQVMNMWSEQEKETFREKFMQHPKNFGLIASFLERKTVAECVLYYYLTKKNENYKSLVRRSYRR

GluA1 mRNA = GluA1 mRNA by RT-qPCR in cortical neurons; format: cell-based, mouse; conditions: BDNF plus AK-7 16.7 µM vs BDNF plus vehicle, 6 h
Experimental: After experimental treatment, total RNA was isolated from primary cortical neuron cultures using the TRIzol method (Invitrogen). The concentration of total RNA was measured using a NanoDrop 1000 spectrophotometer (Thermo Fisher Scientific, Rockford, IL) and first-strand complementary DNA (cDNA) was synthesized using the iScript cDNA Synthesis Kit (Bio-Rad, Hercules, CA). Real-time PCRs were performed using gene-specific primers and monitored by quantification of SYBR Green I fluorescence using a Bio-Rad CFX96 Real-Time Detection System. Expression was normalized against Gapdh expression. The relative quantification from at least three biological replicates was performed using the comparative cycle threshold (∆∆CT) method.
Primers for real-time reverse transcription PCR experiments were: Arc, 5′-[…]-3′ (forward) and 5′-[…]-3′ (reverse); Map2, 5′-[…]-3′ (forward) and 5′-[…]-3′ (reverse); GluA1, 5′-[…]-3′ (forward) and 5′-[…]-3′ (reverse); GluA2, 5′-[…]-3′ (forward) and 5′-[…]-3′ (reverse); Gapdh, 5′-[…]-3′ (forward) and 5′-[…]-3′ (reverse).
Supplementary Fig. 6. […] Bars represent mean fold-change and error bars indicate range from five biological replicates.

[1] = system: acetyl-H3K9 in dentate gyrus; assay: Acetyl-H3K9 immunohistochemistry in dentate gyrus after intraperitoneal injection; format: in vivo, mouse; conditions: 30 mg kg−1 i.p., 3 h, home cage
Experimental: Male mice (C57BL/6 strain) were received as 6-weeks old and habituated to their home cage as trios for 2 weeks before conducting the experiments. During the habituation time period, mice were kept on a light–dark cycle with minimal disruption and unrestricted access to food and water. On experiment day, mice from the same cage were taken and randomly subjected to intraperitoneal injection of vehicle (25% Kolliphor EL (Sigma-Aldrich, C5135), 10% DMSO) or AK-7 (30 mg kg^−1) solution and immediately placed back in their home cage or transferred to a novel environment. […]
The following approach was adopted to quantify the number of Arc-positive cell bodies and average acetyl-H3K9 immunostaining pixel intensity in dentate gyrus. First, complete dentate gyrus overlapping grayscale images of DAPI fluorescence and Arc or acetyl-H3K9 immunostaining were collected using a ×20 objective and Nikon Eclipse 90i upright microscope equipped with a motorized stage and image stitching capability. Second, the boundary of the dentate gyrus based on the DAPI fluorescence was determined in each image set with the ImageJ wand tool. Finally, this information was used for image segmentation and quantification of Arc-positive cell bodies or average acetyl-H3K9 immunostaining pixel intensity within each dentate gyrus images. […]

Compound: O=C(Nc1cccc(Br)c1)c1cccc(S(=O)(=O)N2CCCCCC2)c1 [AK-7]
- impact on acetyl-H3K9 immunofluorescence (Z-score) (acetyl-H3K9): increasing effect of intermediate intensity
- inhibitory activity toward HDAC1 (HDAC1): failed to show any inhibitory activity
- inhibitory activity toward HDAC3 (HDAC3): failed to show any inhibitory activity
- GluA1 mRNA expression (GluA1 mRNA): does not affect
- acetyl-H3K9 immunofluorescence staining intensity in dentate gyrus vs vehicle [1]: small but statistically significant increase
